Test results: publication PMC5578959, “Selective LRRK2 kinase inhibition reduces phosphorylation of endogenous Rab10 and Rab12 in human peripheral mononuclear blood cells” (Scientific Reports, 2017)

Experiments:
[1] = biological target: T1, LRRK2-pSer935 (Homo sapiens, UniProt Q5S007); assay: Western Blot, cultured immune stimulated human PBMCs; assay type: cell-based; settings: 100 nM, 1hr and 24hrs, n = 10 donors
T1 construct: human primary cells expressing endogenous levels of LRRK2; endogenous in cells; host or cells: human PBMCs from healthy donors
T1 sequence (Q5S007 whole entry): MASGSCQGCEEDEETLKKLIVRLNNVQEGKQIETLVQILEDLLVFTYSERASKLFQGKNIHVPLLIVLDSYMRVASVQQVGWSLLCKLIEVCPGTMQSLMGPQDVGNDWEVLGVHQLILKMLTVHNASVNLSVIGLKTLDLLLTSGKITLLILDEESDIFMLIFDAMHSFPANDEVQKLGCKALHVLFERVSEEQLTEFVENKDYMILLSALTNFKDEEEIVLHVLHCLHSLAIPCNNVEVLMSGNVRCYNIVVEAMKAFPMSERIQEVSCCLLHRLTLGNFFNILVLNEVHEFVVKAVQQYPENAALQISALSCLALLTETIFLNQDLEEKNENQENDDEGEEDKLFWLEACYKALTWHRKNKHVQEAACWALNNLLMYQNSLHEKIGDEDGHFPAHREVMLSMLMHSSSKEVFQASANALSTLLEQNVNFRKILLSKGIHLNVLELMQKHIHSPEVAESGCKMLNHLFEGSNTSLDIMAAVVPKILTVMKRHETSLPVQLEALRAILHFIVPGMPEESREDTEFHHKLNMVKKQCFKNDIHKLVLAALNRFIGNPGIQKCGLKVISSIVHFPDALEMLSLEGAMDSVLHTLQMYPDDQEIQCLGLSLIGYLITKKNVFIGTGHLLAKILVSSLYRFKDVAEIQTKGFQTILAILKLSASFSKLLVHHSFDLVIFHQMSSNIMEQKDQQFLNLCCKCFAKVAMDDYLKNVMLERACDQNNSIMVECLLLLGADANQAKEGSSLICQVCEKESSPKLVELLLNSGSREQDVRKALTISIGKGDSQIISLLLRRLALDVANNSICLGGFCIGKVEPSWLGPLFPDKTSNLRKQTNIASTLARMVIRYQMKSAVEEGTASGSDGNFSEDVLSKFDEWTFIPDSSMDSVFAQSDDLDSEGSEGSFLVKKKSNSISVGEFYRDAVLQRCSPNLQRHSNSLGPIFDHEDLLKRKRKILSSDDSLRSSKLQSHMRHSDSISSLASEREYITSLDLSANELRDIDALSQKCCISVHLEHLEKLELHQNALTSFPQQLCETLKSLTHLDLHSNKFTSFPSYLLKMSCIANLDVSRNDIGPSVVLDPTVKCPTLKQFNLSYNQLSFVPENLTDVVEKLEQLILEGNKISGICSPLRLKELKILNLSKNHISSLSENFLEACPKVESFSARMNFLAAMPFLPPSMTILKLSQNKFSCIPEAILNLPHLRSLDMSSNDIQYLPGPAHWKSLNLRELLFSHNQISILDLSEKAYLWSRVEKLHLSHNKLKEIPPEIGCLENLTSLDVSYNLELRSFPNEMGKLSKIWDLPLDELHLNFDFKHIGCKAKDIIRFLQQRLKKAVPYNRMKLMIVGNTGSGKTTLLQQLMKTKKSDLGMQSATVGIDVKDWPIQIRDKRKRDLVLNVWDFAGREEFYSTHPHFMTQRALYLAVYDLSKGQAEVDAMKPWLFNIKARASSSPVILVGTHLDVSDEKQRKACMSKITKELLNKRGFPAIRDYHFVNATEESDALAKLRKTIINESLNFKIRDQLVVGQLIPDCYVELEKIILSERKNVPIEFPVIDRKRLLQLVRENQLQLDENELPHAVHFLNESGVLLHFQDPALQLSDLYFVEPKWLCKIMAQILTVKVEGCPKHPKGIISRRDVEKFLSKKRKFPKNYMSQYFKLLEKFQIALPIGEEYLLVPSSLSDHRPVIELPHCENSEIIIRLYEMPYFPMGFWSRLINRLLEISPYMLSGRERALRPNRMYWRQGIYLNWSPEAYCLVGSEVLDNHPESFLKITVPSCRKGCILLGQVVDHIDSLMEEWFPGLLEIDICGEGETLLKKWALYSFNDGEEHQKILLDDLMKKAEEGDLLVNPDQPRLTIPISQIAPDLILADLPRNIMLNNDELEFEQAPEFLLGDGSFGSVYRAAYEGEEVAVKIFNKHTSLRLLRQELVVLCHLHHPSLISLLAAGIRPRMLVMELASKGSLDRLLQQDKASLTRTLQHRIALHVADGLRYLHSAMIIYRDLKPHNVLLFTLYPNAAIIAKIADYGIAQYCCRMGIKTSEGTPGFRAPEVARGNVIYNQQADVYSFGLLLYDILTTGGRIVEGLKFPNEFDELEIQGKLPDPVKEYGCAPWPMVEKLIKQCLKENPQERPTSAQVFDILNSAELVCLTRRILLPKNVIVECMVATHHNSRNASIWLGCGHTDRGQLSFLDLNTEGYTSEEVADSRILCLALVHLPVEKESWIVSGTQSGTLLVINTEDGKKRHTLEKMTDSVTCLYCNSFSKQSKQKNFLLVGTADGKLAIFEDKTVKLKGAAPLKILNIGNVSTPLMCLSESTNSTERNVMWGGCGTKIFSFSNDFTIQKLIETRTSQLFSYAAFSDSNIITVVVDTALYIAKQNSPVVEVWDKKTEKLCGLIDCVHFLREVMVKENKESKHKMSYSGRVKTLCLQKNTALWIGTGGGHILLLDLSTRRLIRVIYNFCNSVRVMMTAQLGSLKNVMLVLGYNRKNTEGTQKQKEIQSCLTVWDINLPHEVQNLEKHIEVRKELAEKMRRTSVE
Method: PBMC were isolated from fresh blood collected within a maximal time of 4 hours after blood collection. Leucosep tubes (Greiner 227290) was added 15 ml Ficoll (GE Healthcare 17-440-03) and spun 30 s at 1000 × g. Blood was diluted 1:1 using D-PBS 1X (Gibco 14190), transfered to the Leucosep and centrifuged at 800 g for 15 min without brake. The upper layer corresponding to the diluted plasma was removed and the PBMC layer collected using a pipette or by pouring into a clean BD Falcon 50 ml tube. Cells were re-suspended and washed four times with 10 ml of D-PBS 1X (Gibco 14190) followed by centrifugation at 250 g for 10 min with brake at room temperature. The supernatant was discarded and the cells re-suspended in Complete medium equilibrated to 37 °C. The number of dead and living cells were counted on a Nucleocounter and used to calculate percent viability. […]
HEK293 cells were plated at a density of 1 × 10^6 cells/well in 6-well plates pre-coated for 1 hr at 37 °C with poly-L-lysin. […] The proteins were visually detected by infrared imaging using Odyssey CLx (LI-COR, Nebraska, US). Membranes were scanned and band intensities were quantified using the Image Studio version 3.1.4 (LI-COR, Nebraska).

[2] = tested on: Rab10-pThr73; assay: as above; assay type: cell-based; settings: 100 nM
Method: Freshly isolated PBMCs were plated at a density ranging from 7–20 × 10^6 cells in 10 cm petri dishes (Costar 3262) in RPMI-1640 media (Gibco 61870–010) supplemented with 10% non-heat inactivated FBS, 5 ml Antimycotic (Sigma cat:5965) with or without an immune stimulation cocktail consisting of 400 nM phorbol 12-myristate 13-acetate (PMA) and 100 ng/ml interferon-γ (INF-γ). After 48 hrs in culture the cultures were added a fifth of the volume media containing 5x the final concentration of the respective LRRK2 inhibitor with or without PMA and interferon-γ. […] After 72 hrs in culture the PBMC’s were harvested, pelleted and fresh-frozen on dry-ice. An aliquot of PBMCs was used for assessment of PBMC yield and viability.
Cell pellets were resuspended and solubilized in 100 µL lysis buffer (50 mM Tris hydrochloride, 1 mM magnesium chloride, 1% Triton, 0.1% sodium dodecyl sulfate (SDS), pH 8.0) on ice for 20 minutes and then centrifuged at 20,000 g for 30 minutes at 4 °C. The solubilized crude cell lysate was size mobility separated by SDS-polyacrylamide gel electrophoresis (SDS-PAGE). LRRK2 was separated on a 3–8% Tris-Acetate gel (NuPAGE® Tris-Acetate Mini Gels, Life Technologies, Paisley, UK) and Rab10 and Rab12 were separated using a NuPAGE® Novex 4–12% Bis-Tris Gel (Invitrogen, California, US). An amount of 10 µg total protein was loaded in each well. Proteins were transferred to immobilon-FL PVDF membranes (Millipore, Billerica, US). […] The proteins were visually detected by infrared imaging using Odyssey CLx (LI-COR, Nebraska, US). Membranes were scanned and band intensities were quantified using the Image Studio version 3.1.4 (LI-COR, Nebraska).

[3] = tested on: Rab12-pSer106; assay: as above; assay type: cell-based; settings: 100 nM, 1hr or 24 hrs
Method: Cell pellets were resuspended and solubilized in 100 µL lysis buffer (50 mM Tris hydrochloride, 1 mM magnesium chloride, 1% Triton, 0.1% sodium dodecyl sulfate (SDS), pH 8.0) on ice for 20 minutes and then centrifuged at 20,000 g for 30 minutes at 4 °C. […] The proteins were visually detected by infrared imaging using Odyssey CLx (LI-COR, Nebraska, US). Membranes were scanned and band intensities were quantified using the Image Studio version 3.1.4 (LI-COR, Nebraska).

[4] = tested on: T2, ACK; assay: KiNativ profiling in human PBMCs; assay type: binding; settings: Lys1
T2 construct: purchased ActivX Technologies (KiNativ)
Method: (§1) Compounds were shipped to ActivX Technologies (San Diego, US) where LRRK2 target engagement and broad kinase profiling was performed using KiNativ™ procedures. Live cell treatment of human peripheral blood mononuclear cells (PBMCs) at two compound concentrations (1 µM and 0.1 µM) were used to evaluate and compare in vitro target engagement and kinase selectivity, respectively (see Supplementary File 1).

[5] = tested on: T3, CDK5; assay: KiNativ profiling in human PBMCs; assay type: binding
T3 construct: purchased ActivX Technologies (KiNativ)
Method: as §1

[6] = tested on: T4, DNAPK; assay: KiNativ profiling in human PBMCs; assay type: binding; settings: ATP
T4 construct: purchased ActivX Technologies (KiNativ)
Method: as §1

[7] = tested on: T5, IKKe; assay: KiNativ profiling in human PBMCs; assay type: binding; settings: Lys1
T5 construct: purchased ActivX Technologies (KiNativ)
Method: as §1

[8] = tested on: T6, MAP2K4; assay: KiNativ profiling in human PBMCs; assay type: binding
T6 construct: purchased ActivX Technologies (KiNativ)
Method: as §1

[9] = tested on: T7, MAP2K6; assay: KiNativ profiling in human PBMCs; assay type: binding
T7 construct: purchased ActivX Technologies (KiNativ)
Method: as §1

[10] = tested on: T8, MAP2K7; assay: KiNativ profiling in human PBMCs; assay type: binding; settings: Lys2
T8 construct: purchased ActivX Technologies (KiNativ)
Method: as §1

[11] = tested on: T9, MAP3K6; assay: KiNativ profiling in human PBMCs; assay type: binding; settings: Lys2
T9 construct: purchased ActivX Technologies (KiNativ)
Method: as §1

[12] = tested on: MST1,MST2; assay: KiNativ profiling in human PBMCs; assay type: binding; settings: Lys2
Method: as §1

[13] = tested on: T10, STLK5; assay: KiNativ profiling in human PBMCs; assay type: binding
T10 construct: purchased ActivX Technologies (KiNativ)
Method: as §1

Cc1cccc(-c2cc(Nc3ccn(C)n3)nc3[nH]cc(C#N)c23)c1 [Lu AF58786]
LRRK2 kinase inhibition (LRRK2-pSer935/total LRRK2) [1]: confirmed | inhibition of Rab10 phosphorylation (Rab10-pThr73/total Rab10) ([2]; 1 hr): not at 1 hr | inhibition of Rab10 phosphorylation (Rab10-pThr73/total Rab10) ([2]; 24 hrs): able to inhibit Rab10 phosphorylation at 24 hrs | inhibition of Rab12 phosphorylation (Rab12-pSer106) [3]: not able to significant inhibit | Inhibition ([4]; 0.1µM): -14.9% | Inhibition ([4]; 1µM): -10.3% | Inhibition ([5]; 0.1µM, Lys1): 15.8% | Inhibition ([5]; 0.1µM, Lys2): 2.3% | Inhibition ([5]; 1µM, Lys1): 17.6% | Inhibition ([5]; 1µM, Lys2): 2.5% | Inhibition ([6]; 0.1 µM, EHPFLVKGGEDLR): 19.6% | Inhibition ([6]; 0.1 µM, KGGSWIQEINVAEK): -21.8% | Inhibition ([6]; 1 µM, KGGSWIQEINVAEK): 2.3% | Inhibition ([7]; 0.1µM): 8.3% | Inhibition ([7]; 1µM): -0.117% | Inhibition ([8]; 1µM, Lys2): -0.124% | Inhibition ([9]; 0.1µM, Lys1): 2.0% | Inhibition ([9]; 0.1µM, Lys2): 5.6% | Inhibition ([9]; 1µM, Lys1): 2.8% | Inhibition ([9]; 1µM, Lys2): -7.5% | Inhibition ([10]; 0.1µM): 18.1% | Inhibition ([10]; 1µM): -7.3% | Inhibition ([11]; 0.1µM): 31.4% | Inhibition ([11]; 1µM): 4.4% | Inhibition ([12]; 0.1µM): 6.3% | Inhibition ([12]; 1µM): 4.8% | Inhibition ([13]; 0.1µM, Activation Loop): 3.4% | Inhibition ([13]; 0.1µM, Lys2): 16.0% | Inhibition ([13]; 1µM, Activation Loop): -4.3% | Inhibition ([13]; 1µM, Lys2): 19.2%

Cn1cc(-c2c[nH]c3ncnc(N4CCOCC4)c23)cc1C#N [PFE-360]
LRRK2 kinase inhibition (LRRK2-pSer935/total LRRK2) [1]: confirmed | inhibition of Rab10 phosphorylation (Rab10-pThr73/total Rab10) ([2]; 1 hr): not at 1 hr | inhibition of Rab10 phosphorylation (Rab10-pThr73/total Rab10) ([2]; 24 hrs): able to inhibit Rab10 phosphorylation at 24 hrs | inhibition of Rab12 phosphorylation (Rab12-pSer106) [3]: not able to significant inhibit | % Inhibition ([4]; 0.1µM): -5.6% | % Inhibition ([4]; 1µM): -0.5% | % Inhibition ([5]; 0.1µM, Lys1): -2.7% | % Inhibition ([5]; 0.1µM, Lys2): 3.9% | % Inhibition ([5]; 1µM, Lys1): -6.7% | % Inhibition ([5]; 1µM, Lys2): -7.1% | % Inhibition ([6]; 0.1µM, peptide EHPFLVKGGEDLR): 0.3% | % Inhibition ([6]; 0.1µM, peptide KGGSWIQEINVAEK): -1.9% | % Inhibition ([6]; 1µM, peptide EHPFLVKGGEDLR): -12.5% | % Inhibition ([6]; 1µM, peptide KGGSWIQEINVAEK): -4.9% | % Inhibition ([7]; 0.1µM): 2.3% | % Inhibition ([7]; 1µM): 7.7% | % Inhibition ([8]; 0.1µM, Lys1): -7.3% | % Inhibition ([8]; 0.1µM, Lys2): 7.4% | % Inhibition ([8]; 1µM, Lys1): 11% | % Inhibition ([8]; 1µM, Lys2): -3.8% | % Inhibition ([9]; 0.1µM, Lys1): -18% | % Inhibition ([9]; 0.1µM, Lys2): 14.6% | % Inhibition ([9]; 1µM, Lys1): 1.8% | % Inhibition ([9]; 1µM, Lys2): 6.2% | % Inhibition ([10]; 0.1µM): 7.5% | % Inhibition ([10]; 1µM): -1.1% | % Inhibition ([11]; 0.1µM): -5.9% | % Inhibition ([11]; 1µM): -0.1% | % Inhibition ([12]; 0.1µM): 15% | % Inhibition ([12]; 1µM): 39.1% | % Inhibition ([13]; 0.1µM, Activation Loop): -11% | % Inhibition ([13]; 0.1µM, Lys2): 10.9% | % Inhibition ([13]; 1µM, Activation Loop): -2.2% | % Inhibition ([13]; 1µM, Lys2): -15.8%
